Experimental data from paper PMC7956560, “New 3-Aryl-2-(2-thienyl)acrylonitriles with High Activity Against Hepatoma Cells” (International Journal of Molecular Sciences, 2021).

Tests used:
[1] = test system: human HepG2 hepatoblastoma cells; test: Growth inhibition, crystal violet staining, HepG2; format: cell-based; conditions: 48 h incubation, mean ± SD, read-out: Anti-proliferative activity IC50, HepG2
Experimental: (§1) The well-differentiated p53 wild-type human hepatoblastoma cell line HepG2 (ATCC# 8065) and the highly differentiated p53 mutated human hepatocellular carcinoma cell line Huh-7 (JCRB#0403) were grown in RPMI 1640 medium supplemented with 10% fetal bovine serum and 100 U/mL penicillin and […] streptomycin. Murine AML-12 hepatocytes were obtained from ATCC (CRL-2254) and grown in DMEM/F-12 Glutamax medium supplemented with 10% fetal bovine serum, 10 µg/mL insulin, 5.5 µg/mL transferrin, 5 ng/mL selenium (Gibco ITS-G 100X) and 40 ng/mL dexamethasone (Sigma-Aldrich). All cell lines were incubated in a 37 °C, 5% CO2, 95% humidified atmosphere.
(§2) Treatment-induced changes in cell number were evaluated by crystal violet staining, as previously described. Briefly, 1.500 cells per well were seeded in 96-well plates for 24 h at 37 °C, 5% CO2. For the experiments with HepG2 and Huh-7 cell lines, cells were incubated with rising concentrations (0–20 µM) of the new compounds (1a–1o) for 48 h. AML12-cells were treated with compounds 1a, 1b, 1c, 1e, 1i and 1j for 48 h and at concentrations ranging from 0.5–64 µM. Thereafter, the cells were fixed with 1% glutaraldehyde and stained with 0.1% crystal violet (Sigma-Aldrich). The unbound dye was removed by rinsing with water. Bound crystal violet was solubilized with 0.2% Triton X-100 (Sigma-Aldrich). Light extinction of crystal violet, which increases linearly with cell number, was analyzed at 570 nm using an ELISA-Reader (Dynex Technologies, Denkendorf, Germany). All experiments were carried out in duplicate or triplicate.

human Huh-7 HCC cells = test: Growth inhibition, crystal violet staining, Huh-7; format: cell-based; conditions: 48 h incubation, mean ± SD, read-out: Anti-proliferative activity IC50, Huh-7
Experimental: as §1, §2

[2] = test system: non-malignant murine AML-12 hepatocytes; test: Growth inhibition, crystal violet staining, AML-12; format: cell-based
Experimental: as §1, §2

[3] = test system: HepG2-tumors grown on membranes of fertilized chicken eggs; test: Chorioallantoic membrane (CAM) assay; format: in vivo
Experimental: The chorioallantoic membrane (CAM) assay was performed as described previously. Fertilized chicken eggs (Gallus gallus) were obtained from commercial sources (Valo GmbH, Germany) and incubated in a humid environment at 38 °C. On day 3 of the egg development, a window was cut in the eggshell to access the developing vascular network of the CAM. At day 10 of chicken embryo development, a sterile silicon ring (10 mm diameter) was placed on the CAM and tumor plugs of 3 × 10^6 HepG2 cells in 20 µL Matrigel (BD Biosciences) with reduced growth factors were placed inside the silicon ring. After 24 h at 38 °C in an incubator, the tumor plaques attached and connected to the (tumor-)feeding CAM microvasculature. Then, the tumor plaques were topically treated with either PBS (negative control) or PBS containing rising concentrations of 1b (0–10 µM), 1c (0–2.5 µM) or sorafenib (10 μM) for 3 days. Tumor growth and viability of the embryo were controlled daily by stereo microscopy. After 72 h of treatment, the tumors were recovered for weighing and pictures were taken using a stereomicroscope equipped with a Kappa digital camera system (Kappa Optronics GmbH, Germany). For data analysis, the tumor weight of 1c-treated and untreated control tumors was determined and the mean weight of treated vs. untreated tumors of 11 eggs for each condition was calculated. Statistical significance evaluated by one-way ANOVA tests.

[4] = test system: caspase-3 activity of HepG2 cells; test: Apoptosis-specific caspase-3 activity; format: cell-based, human; conditions: HepG2, 1 and 10 µM, 24 h
Experimental: Changes in caspase-3 activity were measured by the cleavage of the fluorogenic substrate AC-DEVD-AMC (EMD Millipore, Billerica, MA, USA), as described previously. After 24 h of incubation with 1a, 1b, 1c, 1e and sorafenib (1 and 10 µM) the cells were harvested and lysed with lysis buffer. Subsequently, the lysates were incubated for 1 h at 37 °C with a substrate solution containing 20 μg/mL AC-DEVD-AMC, 20 mM HEPES, 10% glycerol and 2 mM DTT at pH 7.5. Substrate cleavage was measured fluorometrically using a Varioskan Flash Fluorometer (Thermo Fisher Scientific, Waltham, MA, USA; filter sets: ex 360/40 nm, em 460/10 nm). n = 3 independent measurements were performed in triplicate, and data are given as the mean percentage increase ± SD above control, which was set 100%.

CLK1 = target: T1, CLK1 (Homo sapiens, UniProt P49759); test: Enzymatic kinase assay (Eurofins KinaseProfiler); format: biochemical; conditions: 10 µM compound, cell-free
T1 construct: purchased Eurofins KinaseProfiler service (Eurofins, France)
Experimental: (§3) The kinase inhibiting potency of compound 1a, 1b and 1c (10 µM) was screened in a cell-free kinase assay, which consisted of a custom panel of 43 human protein kinases for 1c (listed in Figure 5A), as well as a subpanel of six kinases for 1a and 1b (Figure 5B). The initial panel was chosen to screen the lead compound 1c based on the union of two strategies. A total of 29 kinases were selected based on the correlated results of three in silico target prediction methods including structure- as well as ligand-based techniques and 20 kinases because of their relevance for HCC (note that six kinases were part of both strategies).
(§4) The assay was performed by Eurofins KinaseProfilerTM service (Eurofins, France) and the determination of enzymatic activity was assessed as previously described. Additionally, an IC50 determination of compound 1c against the VEGFR-2 was performed with a concentration range of 0.003 to 30 µM.

EGFR = target: T2, EGFR (Homo sapiens, UniProt P00533); test: Enzymatic kinase assay (Eurofins KinaseProfiler); format: biochemical; conditions: 10 µM compound, cell-free
T2 construct: purchased Eurofins KinaseProfiler service (Eurofins, France)
Experimental: as §3, §4

IGF-1R = target: T3, IGF-1R (Homo sapiens, UniProt P08069); test: Enzymatic kinase assay (Eurofins KinaseProfiler); format: biochemical; conditions: 10 µM compound, cell-free
T3 construct: purchased Eurofins KinaseProfiler service (Eurofins, France)
T3 sequence (P08069 31-1367): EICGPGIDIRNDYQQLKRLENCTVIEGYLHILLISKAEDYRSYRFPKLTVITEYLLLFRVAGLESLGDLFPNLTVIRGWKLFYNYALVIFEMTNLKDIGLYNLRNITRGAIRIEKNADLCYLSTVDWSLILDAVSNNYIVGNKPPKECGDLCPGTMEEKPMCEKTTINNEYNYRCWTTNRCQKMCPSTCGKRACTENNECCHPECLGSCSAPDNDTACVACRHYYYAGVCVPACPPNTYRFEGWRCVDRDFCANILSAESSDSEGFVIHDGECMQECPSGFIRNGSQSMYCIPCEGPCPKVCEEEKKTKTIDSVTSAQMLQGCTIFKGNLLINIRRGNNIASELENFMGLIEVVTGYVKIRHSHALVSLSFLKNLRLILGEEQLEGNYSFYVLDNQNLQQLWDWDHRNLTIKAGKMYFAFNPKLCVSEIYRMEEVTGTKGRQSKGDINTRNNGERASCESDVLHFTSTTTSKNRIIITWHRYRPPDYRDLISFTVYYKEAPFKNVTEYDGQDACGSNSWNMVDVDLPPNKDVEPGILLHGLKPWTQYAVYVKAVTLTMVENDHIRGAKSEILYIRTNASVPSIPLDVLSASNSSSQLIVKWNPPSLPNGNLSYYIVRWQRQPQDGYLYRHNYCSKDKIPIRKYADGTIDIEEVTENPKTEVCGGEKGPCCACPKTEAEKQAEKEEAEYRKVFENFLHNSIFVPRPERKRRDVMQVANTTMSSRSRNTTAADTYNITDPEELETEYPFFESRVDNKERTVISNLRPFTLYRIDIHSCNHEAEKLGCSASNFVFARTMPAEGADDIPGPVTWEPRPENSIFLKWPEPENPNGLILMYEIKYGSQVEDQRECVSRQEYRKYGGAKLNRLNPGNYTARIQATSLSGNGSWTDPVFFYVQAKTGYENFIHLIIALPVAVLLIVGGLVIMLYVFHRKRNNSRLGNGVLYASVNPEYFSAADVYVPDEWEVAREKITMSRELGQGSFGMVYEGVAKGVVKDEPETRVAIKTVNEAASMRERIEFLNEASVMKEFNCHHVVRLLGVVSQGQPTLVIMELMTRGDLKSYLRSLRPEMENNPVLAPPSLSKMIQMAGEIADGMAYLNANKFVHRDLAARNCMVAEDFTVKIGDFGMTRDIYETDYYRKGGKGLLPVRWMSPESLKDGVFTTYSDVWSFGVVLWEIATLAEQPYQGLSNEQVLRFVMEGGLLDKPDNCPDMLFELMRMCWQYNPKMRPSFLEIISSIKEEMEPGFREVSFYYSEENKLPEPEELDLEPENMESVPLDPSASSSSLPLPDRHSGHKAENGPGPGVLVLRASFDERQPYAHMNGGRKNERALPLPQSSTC
Experimental: as §3, §4

Pim-1 = target: T4, Pim-1 (Homo sapiens, UniProt P11309); test: Enzymatic kinase assay (Eurofins KinaseProfiler); format: biochemical; conditions: 10 µM compound, cell-free
T4 construct: purchased Eurofins KinaseProfiler service (Eurofins, France)
Experimental: as §3, §4

Pim-2 = target: T5, Pim-2 (Homo sapiens, UniProt Q9P1W9); test: Enzymatic kinase assay (Eurofins KinaseProfiler); format: biochemical; conditions: 10 µM compound, cell-free
T5 construct: purchased Eurofins KinaseProfiler service (Eurofins, France)
Experimental: as §3, §4

VEGFR-1 = target: T6, VEGFR-1 (Homo sapiens, UniProt P17948); test: Enzymatic kinase assay (Eurofins KinaseProfiler); format: biochemical; conditions: 10 µM compound, cell-free
T6 construct: purchased Eurofins KinaseProfiler service (Eurofins, France)
T6 sequence (P17948 27-1338): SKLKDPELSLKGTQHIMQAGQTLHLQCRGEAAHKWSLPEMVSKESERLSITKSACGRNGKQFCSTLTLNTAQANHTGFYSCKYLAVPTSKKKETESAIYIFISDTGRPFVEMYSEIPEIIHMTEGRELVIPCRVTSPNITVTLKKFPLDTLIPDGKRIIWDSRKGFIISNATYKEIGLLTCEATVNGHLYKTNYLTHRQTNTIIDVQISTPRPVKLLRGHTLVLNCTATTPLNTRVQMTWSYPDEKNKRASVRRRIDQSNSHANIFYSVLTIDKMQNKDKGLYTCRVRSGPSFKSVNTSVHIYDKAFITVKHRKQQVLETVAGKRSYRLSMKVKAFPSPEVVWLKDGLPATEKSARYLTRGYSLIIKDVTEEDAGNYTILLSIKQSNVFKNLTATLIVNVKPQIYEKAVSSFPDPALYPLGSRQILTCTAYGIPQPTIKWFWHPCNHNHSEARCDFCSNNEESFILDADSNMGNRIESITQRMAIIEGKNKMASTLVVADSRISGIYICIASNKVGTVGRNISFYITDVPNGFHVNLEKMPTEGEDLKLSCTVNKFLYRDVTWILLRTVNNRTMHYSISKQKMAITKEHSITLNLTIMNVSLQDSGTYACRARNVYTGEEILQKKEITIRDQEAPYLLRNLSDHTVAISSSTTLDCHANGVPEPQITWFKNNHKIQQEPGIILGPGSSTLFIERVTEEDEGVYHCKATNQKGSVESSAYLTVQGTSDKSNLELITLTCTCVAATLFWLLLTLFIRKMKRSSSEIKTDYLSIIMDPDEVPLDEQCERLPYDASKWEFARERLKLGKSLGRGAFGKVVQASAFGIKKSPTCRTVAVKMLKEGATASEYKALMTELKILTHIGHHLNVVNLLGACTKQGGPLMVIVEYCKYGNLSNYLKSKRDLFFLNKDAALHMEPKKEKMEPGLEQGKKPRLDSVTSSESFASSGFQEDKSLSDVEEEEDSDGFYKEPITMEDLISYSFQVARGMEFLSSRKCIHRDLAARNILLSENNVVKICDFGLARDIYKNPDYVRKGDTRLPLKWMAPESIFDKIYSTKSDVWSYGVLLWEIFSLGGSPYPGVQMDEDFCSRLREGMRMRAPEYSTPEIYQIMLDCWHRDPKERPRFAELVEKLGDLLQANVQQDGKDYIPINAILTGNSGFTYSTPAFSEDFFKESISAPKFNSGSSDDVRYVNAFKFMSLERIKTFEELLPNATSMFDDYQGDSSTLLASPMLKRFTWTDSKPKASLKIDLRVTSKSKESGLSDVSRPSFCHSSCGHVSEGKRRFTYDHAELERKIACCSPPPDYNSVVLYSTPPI
Experimental: as §3, §4

VEGFR-2 (KDR) = target: T7, VEGFR-2 (KDR) (Homo sapiens, UniProt P35968); test: Enzymatic kinase assay (Eurofins KinaseProfiler); format: biochemical
T7 construct: purchased Eurofins KinaseProfiler service (Eurofins, France)
T7 sequence (P35968 20-1356): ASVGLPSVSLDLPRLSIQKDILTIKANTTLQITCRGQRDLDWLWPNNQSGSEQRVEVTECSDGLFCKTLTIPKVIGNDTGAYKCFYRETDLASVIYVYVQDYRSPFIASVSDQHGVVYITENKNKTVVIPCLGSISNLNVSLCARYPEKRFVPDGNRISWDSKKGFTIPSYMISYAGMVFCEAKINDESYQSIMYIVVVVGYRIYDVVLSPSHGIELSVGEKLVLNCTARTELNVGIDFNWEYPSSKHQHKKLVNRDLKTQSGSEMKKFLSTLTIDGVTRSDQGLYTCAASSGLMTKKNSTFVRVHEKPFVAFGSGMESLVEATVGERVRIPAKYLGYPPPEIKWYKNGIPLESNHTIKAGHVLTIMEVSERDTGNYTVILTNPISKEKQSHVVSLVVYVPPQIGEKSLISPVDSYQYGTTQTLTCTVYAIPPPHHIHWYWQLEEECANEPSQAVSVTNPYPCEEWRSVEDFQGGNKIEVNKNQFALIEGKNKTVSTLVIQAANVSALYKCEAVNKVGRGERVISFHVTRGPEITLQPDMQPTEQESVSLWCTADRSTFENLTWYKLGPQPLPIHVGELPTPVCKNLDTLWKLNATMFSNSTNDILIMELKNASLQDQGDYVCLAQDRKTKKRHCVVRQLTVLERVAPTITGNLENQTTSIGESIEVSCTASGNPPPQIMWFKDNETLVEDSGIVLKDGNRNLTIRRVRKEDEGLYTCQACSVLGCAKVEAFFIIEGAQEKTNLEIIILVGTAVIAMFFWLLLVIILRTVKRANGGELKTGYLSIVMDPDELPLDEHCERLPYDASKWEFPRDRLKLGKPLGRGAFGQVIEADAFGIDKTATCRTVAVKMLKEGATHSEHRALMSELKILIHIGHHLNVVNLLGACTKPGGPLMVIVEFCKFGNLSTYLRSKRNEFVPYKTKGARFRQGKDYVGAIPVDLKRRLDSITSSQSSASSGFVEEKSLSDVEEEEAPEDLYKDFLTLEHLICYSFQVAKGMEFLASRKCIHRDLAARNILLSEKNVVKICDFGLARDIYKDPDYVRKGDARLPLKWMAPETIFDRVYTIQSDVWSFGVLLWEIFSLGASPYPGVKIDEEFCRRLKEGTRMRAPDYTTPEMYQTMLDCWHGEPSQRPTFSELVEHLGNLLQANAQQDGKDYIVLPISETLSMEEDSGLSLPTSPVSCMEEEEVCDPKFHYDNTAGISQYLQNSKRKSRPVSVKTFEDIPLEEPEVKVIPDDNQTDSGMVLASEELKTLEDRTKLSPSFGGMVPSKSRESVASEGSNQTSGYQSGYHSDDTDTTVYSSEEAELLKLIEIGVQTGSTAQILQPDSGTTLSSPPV
Experimental: as §3, §4

c-KIT = target: T8, c-KIT (Homo sapiens, UniProt P10721); test: Enzymatic kinase assay (Eurofins KinaseProfiler); format: biochemical; conditions: 10 µM compound, cell-free
T8 construct: purchased Eurofins KinaseProfiler service (Eurofins, France)
T8 sequence (P10721 26-976): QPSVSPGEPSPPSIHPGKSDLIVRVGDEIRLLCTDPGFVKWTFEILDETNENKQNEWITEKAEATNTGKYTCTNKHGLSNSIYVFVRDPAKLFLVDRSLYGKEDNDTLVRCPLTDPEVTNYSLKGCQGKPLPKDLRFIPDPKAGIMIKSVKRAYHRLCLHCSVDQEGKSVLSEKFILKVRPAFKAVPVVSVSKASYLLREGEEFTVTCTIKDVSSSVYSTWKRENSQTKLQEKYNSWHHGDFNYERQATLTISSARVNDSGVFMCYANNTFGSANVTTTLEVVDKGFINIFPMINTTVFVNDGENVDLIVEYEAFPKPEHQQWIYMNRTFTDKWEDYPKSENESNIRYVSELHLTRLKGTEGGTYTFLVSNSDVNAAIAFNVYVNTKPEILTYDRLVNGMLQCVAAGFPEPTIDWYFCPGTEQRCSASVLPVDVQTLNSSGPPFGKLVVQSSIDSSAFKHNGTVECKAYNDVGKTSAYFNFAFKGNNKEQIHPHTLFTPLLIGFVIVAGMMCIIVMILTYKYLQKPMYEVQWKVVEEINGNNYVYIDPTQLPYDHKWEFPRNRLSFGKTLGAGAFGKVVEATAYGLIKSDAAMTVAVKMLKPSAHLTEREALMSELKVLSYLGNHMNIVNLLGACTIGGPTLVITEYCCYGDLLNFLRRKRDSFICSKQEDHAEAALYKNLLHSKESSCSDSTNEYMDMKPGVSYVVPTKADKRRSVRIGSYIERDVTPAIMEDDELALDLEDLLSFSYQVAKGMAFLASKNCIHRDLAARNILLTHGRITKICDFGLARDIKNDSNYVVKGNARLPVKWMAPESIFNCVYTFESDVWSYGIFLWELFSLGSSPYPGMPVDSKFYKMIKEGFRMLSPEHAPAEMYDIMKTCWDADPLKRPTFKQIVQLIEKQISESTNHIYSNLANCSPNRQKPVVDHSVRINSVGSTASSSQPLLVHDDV
Experimental: as §3, §4

FGFR = test: Enzymatic kinase assay (Eurofins KinaseProfiler); format: biochemical, human; conditions: 10 µM compound, cell-free
Experimental: as §3, §4

PDGFR = test: Enzymatic kinase assay (Eurofins KinaseProfiler); format: biochemical, human; conditions: 10 µM compound, cell-free
Experimental: as §3, §4

COc1ccc(C=C(C#N)c2cccs2)cc1O [Compound 1c, 2-[1-Cyano-2-(3-hydroxy-4-methoxyphenyl)-(E)-ethenyl)]-thiophene]
IC50 [1]: 550 ± 260 nM | IC50 (human Huh-7 HCC cells): 320 ± 150 nM | IC50 against AML-12 hepatocytes relative to hepatoma cells ([2]; AML-12 vs hepatoma cells (HepG2, Huh-7), 48 h): up to 10 fold | IC50 ([2]; Mus musculus, AML12, 48 h incubation, mean ± SD, read-out: Anti-proliferative activity IC50, AML-12): 1810 ± 310 nM | tumor weight after treatment (in words) ([3]; extracted tumors after 3 days of treatment, 1c 0–2.5 µM): significant mass reduction | tumor reduction vs PBS-treated controls (in words) ([3]; topical treatment 72 h, 1b 0–10 µM, 1c 0–2.5 µM, sorafenib 10 µM): pronounced tumor reductions | tolerability, mortality and development of chicken embryos ([3]; treated vs untreated eggs): well tolerated | caspase-3 activity (in words) [4]: dose-dependently induced caspase-3 activity | inhibition at 10 µM (CLK1): 69% | inhibition of EGFR (in words) (EGFR): no relevant inhibition | inhibition of IGF-1R (in words) (IGF-1R): no relevant inhibition | inhibition at 10 µM (Pim-1): 71% | inhibition at 10 µM (Pim-2): 60% | inhibition at 10 µM (VEGFR-1): 75% | inhibition at 10 µM (VEGFR-2 (KDR); 10 µM compound, cell-free): 89% | IC50 (VEGFR-2 (KDR); concentration range 0.003 to 30 µM, read-out: IC50 against VEGFR-2): 3320 nM | inhibition at 10 µM (c-KIT): 61% | inhibition of FGFR (in words) (FGFR): no relevant inhibition | inhibition of PDGFR (in words) (PDGFR): no relevant inhibition
